Experimental data from ChEMBL document CHEMBL5550148, “Systematic alanine and stapling mutational analysis of antimicrobial peptide Chem-KVL” (Bioorg Med Chem Lett, 2024).
Converted amounts (≈) assume the structure as drawn. Bridge positions count the residues as written; N and C are the ends. Square brackets hold non-standard residues; d marks the D form. Peptide text beside a SMILES is read from it. S5 = C=CCCC[C@](C)(N)C(=O)O

Assays:
[1] = system: Acinetobacter baumannii; assay: Antibacterial activity against Acinetobacter baumannii ATCC 17978 assessed as inhibition of bacterial growth; format: functional
[2] = Retention time of compound by HPLC analysis; format: physicochemical
[3] = biological target: T1, chymotrypsin (Homo sapiens, UniProt P17538+P40313+Q6GPI1+Q99895); assay: Proteolytic stability of compound assessed as chymotrypsin (unknown origin) mediated drug degradation measured within 4 hrs by HPLC analysis; format: ADME, protein assay; conditions: read-out: Drug degradation
[4] = system: Escherichia coli; assay: Antibacterial activity against Escherichia coli ATCC 25922 assessed as inhibition of bacterial growth; format: functional
[5] = Cytotoxicity against mouse RAW264.7 cells; format: toxicity, cell-based
[6] = system: Klebsiella pneumoniae; assay: Antibacterial activity against Klebsiella pneumoniae ATCC 13883 assessed as inhibition of bacterial growth; format: functional
[7] = system: Salmonella typhimurium; assay: Antibacterial activity against Salmonella typhimurium clinical isolate assessed as inhibition of bacterial growth; format: functional, Salmonella enterica subsp. enterica serovar Typhimurium; conditions: Salmonella enterica
[8] = system: Staphylococcus aureus; assay: Antibacterial activity against Staphylococcus aureus ATCC 25923 assessed as inhibition of bacterial growth; format: functional
[9] = system: Pseudomonas aeruginosa; assay: Antibacterial activity against Pseudomonas aeruginosa ATCC 27853 assessed as inhibition of bacterial growth; format: functional
[10] = biological target: T1, chymotrypsin; assay: Proteolytic stability of compound assessed as chymotrypsin (unknown origin) mediated drug degradation by measuring compound remaining after 4 hrs by HPLC analysis; format: ADME, protein assay; conditions: read-out: Stability
[11] = system: Pseudomonas aeruginosa; assay: Potency index, ratio of Chem-KVL MIC to test compound MIC for antibacterial activity against Pseudomonas aeruginosa ATCC 27853; format: functional
[12] = system: Escherichia coli; assay: Potency index, ratio of Chem-KVL MIC to test compound MIC for antibacterial activity against Escherichia coli ATCC 25922; format: functional
[13] = system: Staphylococcus aureus; assay: Potency index, ratio of Chem-KVL MIC to test compound MIC for antibacterial activity against Staphylococcus aureus ATCC 25923; format: functional

Compound	MIC [1] [µg/mL]	Time [2] [min]	metabolised at 4 h [3] [%]	MIC [4] [µg/mL]	MIC [6] [µg/mL]	MIC [7] [µg/mL]	MIC [8] [µg/mL]	MIC [9] [µg/mL]	remaining at 4 h [10] [%]	IC50 [5] [µg/mL]	Ratio [11]	Ratio [12]	Ratio [13]
Ac-KVLGRLVKVLGRAV-NH2	64	22.7		> 64	> 64	32	> 64	> 64					
CC(=O)N[C@@H](CCCCN)C(=O)N[C@H](C(=O)N[C@@H](CC(C)C)C(=O)NCC(=O)N[C@@H](CCCNC(=N)N)C(=O)N[C@@H](CC(C)C)C(=O)N[C@@]1(C)CCC/C=C\CCC[C@@](C)(C(=O)N[C@@H](CCCNC(=N)N)C(=O)N[C@@H](CC(C)C)C(=O)N[C@H](C(N)=O)C(C)C)NC(=O)[C@H](CC(C)C)NC(=O)[C@H](C(C)C)NC(=O)[C@H](CCCCN)NC1=O)C(C)C (Ac-KVLGRL[S5]KVL[S5]RLV-NH2; staple (Z) 7-11)	> 64	30.6		> 64	> 64	> 64	16 (≈ 9.49 µM)	32 (≈ 19 µM)					
Ac-KVLGRLVKVAGRLV-NH2	> 64	22		> 64	> 64	64	> 64	> 64					
Ac-KVLGRAVKVLGRLV-NH2	> 64	22.3		> 64	> 64	64	> 64	> 64					
Ac-KVLGRLVAVLGRLV-NH2	> 64	27.4		64	64	> 64	16	64					
Ac-KVAGRLVKVLGRLV-NH2	> 64	22.4		64	> 64	64	> 64	> 64					
Ac-KVLGRLVKALGRLV-NH2	> 64	25.2		> 64	> 64	64	> 64	> 64					
CC(=O)N[C@@H](CCCCN)C(=O)N[C@H](C(=O)N[C@@]1(C)CCC/C=C\CCC[C@@](C)(C(=O)N[C@@H](CCCCN)C(=O)N[C@H](C(=O)N[C@@H](CC(C)C)C(=O)NCC(=O)N[C@@H](CCCNC(=N)N)C(=O)N[C@@H](CC(C)C)C(=O)N[C@H](C(N)=O)C(C)C)C(C)C)NC(=O)[C@H](CC(C)C)NC(=O)[C@H](CCCNC(=N)N)NC(=O)CNC1=O)C(C)C (Ac-KV[S5]GRL[S5]KVLGRLV-NH2; staple (Z) 3-7)	64 (≈ 39.3 µM)	27.1		64 (≈ 39.3 µM)	> 64	> 64	4 (≈ 2.46 µM)	16 (≈ 9.82 µM)					
Ac-KVLGRLVKVLGALV-NH2	> 64	27		> 64	> 64	> 64	32	16					
CC(=O)N[C@@H](CCCCN)C(=O)N[C@H](C(=O)N[C@@H](CC(C)C)C(=O)NCC(=O)N[C@@]1(C)CCC/C=C\CCC[C@@](C)(C(=O)N[C@@H](CC(C)C)C(=O)NCC(=O)N[C@@H](CCCNC(=N)N)C(=O)N[C@@H](CC(C)C)C(=O)N[C@H](C(=O)O)C(C)C)NC(=O)[C@H](CCCCN)NC(=O)[C@H](C(C)C)NC(=O)[C@H](CC(C)C)NC1=O)C(C)C (Ac-KVLG[S5]LVK[S5]LGRLV-OH; staple (Z) 5-9)	64 (≈ 40.3 µM)	30.8		64 (≈ 40.3 µM)	> 64	> 64	4 (≈ 2.52 µM)	4 (≈ 2.52 µM)					
Ac-AVLGRLVKVLGRLV-NH2	> 64	27.8		> 64	> 64	> 64	16	64					

These reach a lower MIC [1]. Values come first.

MIC [1] [µg/mL]	Time [2] [min]	metabolised at 4 h [3] [%]	MIC [4] [µg/mL]	MIC [6] [µg/mL]	MIC [7] [µg/mL]	MIC [8] [µg/mL]	MIC [9] [µg/mL]	remaining at 4 h [10] [%]	Compound	IC50 [5] [µg/mL]	Ratio [11]	Ratio [12]	Ratio [13]
32	26.8		32	64	64	4	32		Ac-KVLARLVKVLGRLV-NH2				
32	28.4		32	32	64	8	16		Ac-KVLGALVKVLGRLV-NH2				
32 (≈ 19.6 µM)	27.9		32 (≈ 19.6 µM)	64 (≈ 39.3 µM)	64 (≈ 39.3 µM)	8 (≈ 4.91 µM)	4 (≈ 2.46 µM)		CC(=O)N[C@@H](CCCCN)C(=O)N[C@H](C(=O)N[C@@H](CC(C)C)C(=O)NCC(=O)N[C@@H](CCCNC(=N)N)C(=O)N[C@@H](CC(C)C)C(=O)N[C@H](C(=O)N[C@@H](CCCCN)C(=O)N[C@@]1(C)CCC/C=C\CCC[C@@](C)(C(=O)N[C@H](C(N)=O)C(C)C)NC(=O)[C@H](CCCNC(=N)N)NC(=O)CNC(=O)[C@H](CC(C)C)NC1=O)C(C)C)C(C)C (Ac-KVLGRLVK[S5]LGR[S5]V-NH2; staple (Z) 9-13)				
32 (≈ 19.6 µM)	28.3		32 (≈ 19.6 µM)	64 (≈ 39.3 µM)	64 (≈ 39.3 µM)	4 (≈ 2.46 µM)	8 (≈ 4.91 µM)		CC(=O)N[C@@H](CCCCN)C(=O)N[C@H](C(=O)N[C@@H](CC(C)C)C(=O)NCC(=O)N[C@@H](CCCNC(=N)N)C(=O)N[C@@H](CC(C)C)C(=O)N[C@H](C(=O)N[C@@H](CCCCN)C(=O)N[C@H](C(=O)N[C@@]1(C)CCC/C=C\CCC[C@@](C)(C(N)=O)NC(=O)[C@H](CC(C)C)NC(=O)[C@H](CCCNC(=N)N)NC(=O)CNC1=O)C(C)C)C(C)C)C(C)C (Ac-KVLGRLVKV[S5]GRL[S5]-NH2; staple (Z) 10-14)				
32	24.5		8	64	16	32	64		Ac-KVLGRLAKVLGRLV-NH2				
32	24.2		16	64	32	64	> 64		Ac-KVLGRLVKVLGRLA-NH2				
16	25.1	100	32	16	32	16	32		Ac-KVLGRLVKVLGRLV-NH2	3.7			
16 (≈ 9.91 µM)	26.5		32 (≈ 19.8 µM)	64 (≈ 39.6 µM)	64 (≈ 39.6 µM)	2 (≈ 1.24 µM)	4 (≈ 2.48 µM)	> 70	CC(=O)N[C@@H](CCCCN)C(=O)N[C@H](C(=O)N[C@@H](CC(C)C)C(=O)NCC(=O)N[C@@H](CCCNC(=N)N)C(=O)N[C@@]1(C)CCC/C=C\CCC[C@@](C)(C(=O)NCC(=O)N[C@@H](CCCNC(=N)N)C(=O)N[C@@H](CC(C)C)C(=O)N[C@H](C(N)=O)C(C)C)NC(=O)[C@H](C(C)C)NC(=O)[C@H](CCCCN)NC(=O)[C@H](C(C)C)NC1=O)C(C)C (Ac-KVLGR[S5]VKV[S5]GRLV-NH2; staple (Z) 6-10)	2.95 (≈ 1.83 µM)			
16	24.4		8	32	16	32	64		Ac-KALGRLVKVLGRLV-NH2				
16 (≈ 9.82 µM)	27.3	100	16 (≈ 9.82 µM)	32 (≈ 19.6 µM)	32 (≈ 19.6 µM)	8 (≈ 4.91 µM)	4 (≈ 2.46 µM)		CC(=O)N[C@@H](CCCCN)C(=O)N[C@@]1(C)CCC/C=C\CCC[C@@](C)(C(=O)N[C@H](C(=O)N[C@@H](CCCCN)C(=O)N[C@H](C(=O)N[C@@H](CC(C)C)C(=O)NCC(=O)N[C@@H](CCCNC(=N)N)C(=O)N[C@@H](CC(C)C)C(=O)N[C@H](C(N)=O)C(C)C)C(C)C)C(C)C)NC(=O)[C@H](CCCNC(=N)N)NC(=O)CNC(=O)[C@H](CC(C)C)NC1=O (Ac-K[S5]LGR[S5]VKVLGRLV-NH2; staple (Z) 2-6)	4.11 (≈ 2.52 µM)			
16	27.4		16	16	32	8	8		Ac-KVLGRLVKVLARLV-NH2		2	2	2
